Measured values as given in patent US5962472A, “Use of 4-phenyl-3,6-dihydro-2H-pyridyl derivatives” (Hoffmann-La Roche Inc., priority 1996, dated 1999).
Counter-ions that a name gives are not always drawn. Like-named read-outs stand apart in the source and are kept apart here.

Experiments:
NMDAR1C--NMDAR2A = biological target: T1, NMDAR1C--NMDAR2A (Rattus norvegicus, UniProt P35439+Q00959); assay: Electrophysiology on recombinant NMDA receptors NMDAR1C-NMDAR2A expressed in Xenopus oocytes; type: cell-based; conditions: -80 mV, 70 μM Asp plus 2.5 μM Gly, > = highest tested concentration (solubility limit), read-out: Electrophysiology IC50 NMDAR 1C u. 2A
T1 construct: expressed in transfected cells; host or cells: Xenopus laevis oocytes, mRNA injected 1:1
T1 sequence (Q00959 23-1464, other chains not shown): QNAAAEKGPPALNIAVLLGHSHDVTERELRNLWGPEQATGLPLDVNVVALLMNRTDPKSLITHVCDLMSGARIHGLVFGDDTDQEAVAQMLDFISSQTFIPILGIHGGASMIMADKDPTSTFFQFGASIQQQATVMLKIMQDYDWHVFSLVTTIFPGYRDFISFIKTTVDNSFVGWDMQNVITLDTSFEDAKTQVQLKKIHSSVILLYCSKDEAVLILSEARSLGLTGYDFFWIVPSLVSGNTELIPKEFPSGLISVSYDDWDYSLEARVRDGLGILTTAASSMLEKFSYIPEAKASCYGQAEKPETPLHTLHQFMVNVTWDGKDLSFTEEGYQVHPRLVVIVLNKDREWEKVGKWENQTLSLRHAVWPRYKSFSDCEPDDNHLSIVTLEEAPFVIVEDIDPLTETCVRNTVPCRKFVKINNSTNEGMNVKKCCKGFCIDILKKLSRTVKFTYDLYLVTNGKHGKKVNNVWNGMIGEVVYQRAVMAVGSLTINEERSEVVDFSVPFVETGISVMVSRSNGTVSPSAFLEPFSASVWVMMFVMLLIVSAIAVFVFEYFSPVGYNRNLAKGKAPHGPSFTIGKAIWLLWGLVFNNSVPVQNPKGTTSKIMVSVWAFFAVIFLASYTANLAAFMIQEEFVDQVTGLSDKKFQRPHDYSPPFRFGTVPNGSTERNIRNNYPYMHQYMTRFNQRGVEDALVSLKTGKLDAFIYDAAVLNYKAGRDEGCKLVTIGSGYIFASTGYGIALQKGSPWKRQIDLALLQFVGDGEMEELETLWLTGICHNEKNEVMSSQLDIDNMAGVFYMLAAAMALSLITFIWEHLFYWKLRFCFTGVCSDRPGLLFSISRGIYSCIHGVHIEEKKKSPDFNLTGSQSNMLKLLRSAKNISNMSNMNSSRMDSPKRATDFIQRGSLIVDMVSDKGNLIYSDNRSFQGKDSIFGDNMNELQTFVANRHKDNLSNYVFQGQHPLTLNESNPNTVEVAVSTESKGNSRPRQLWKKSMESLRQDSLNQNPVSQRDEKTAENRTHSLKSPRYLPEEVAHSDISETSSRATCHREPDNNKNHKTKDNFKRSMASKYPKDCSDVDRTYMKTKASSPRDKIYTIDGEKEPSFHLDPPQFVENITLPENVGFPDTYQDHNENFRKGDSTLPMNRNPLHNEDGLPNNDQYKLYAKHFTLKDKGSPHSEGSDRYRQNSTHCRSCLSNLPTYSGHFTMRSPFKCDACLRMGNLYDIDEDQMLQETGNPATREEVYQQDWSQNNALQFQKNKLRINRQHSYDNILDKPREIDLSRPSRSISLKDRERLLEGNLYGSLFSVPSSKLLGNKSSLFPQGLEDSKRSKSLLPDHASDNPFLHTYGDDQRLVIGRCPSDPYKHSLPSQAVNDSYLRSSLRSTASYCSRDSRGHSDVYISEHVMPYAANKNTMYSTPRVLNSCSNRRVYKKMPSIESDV
Excerpt: (§1) Electrophysiology on recombinant NMDA receptors
(§2) cDNA clones coding for the subunits NMDAR1C and NMDAR2A of the NMDA receptor (see Hollmann and Heinemann, 1994, Annu. Rev. Neurosci. 17:31 for nomenclature of NMDA receptor subunits) were isolated from a rat brain λgt11 cDNA library as published elsewhere (Sigel et al., 1994, J. Biol. Chem. 269:8204). The clone for the subunit NMDAR2B of the rat brain NMDA receptor was obtained from S. Nakanishi (Kyoto, Japan). The cDNAs were transcribed, capped and poly(A^+)-tailed as described previously (Malherbe et al., 1990, Mol. Brain Res. 8: 199). Oocytes of South African frogs (Xenopus laevis) were used for expressing either a combination of the NMDAR1C and NMDAR2A subunits or the NMDAR1C and NMDAR2B subunits. Approximately 3 fmol of a 1:1 mixture of the respective mRNA species were injected into every oocyte. Four to five days later the ion current through the NMDA receptor channels was measured in voltage clamp experiments (see Methfessel et al., 1986, Pfliigers Arch. 407:577 for the methods of oocyte expression and voltage-clamping). The membrane potential was clamped to -80 mV and the receptors were activated by applying a modified Ringer's solution containing the NMDA-receptor agonists L-asparatate (Asp) and glycine (Gly). Different agonist concentrations were chosen for either subunit combination to account for the different agonist sensitivities of the two types of receptors (70 μM Asp plus 2.5 μM Gly for NMDARlC--NMDAR2A and 15 μM Asp plus 0.2 μM Gly for NMDAR1C--NMDAR2B). The agonists were applied for 15 s intervals once every 2.5 min by rapid superfusion of the oocyte with agonist containing solution and the amplitude of the agonist-evoked current was measured immediately before the end of each application. After a series of initial control applications, increasing concentrations of the antagonist to be tested were added to both, the basal Ringer's and the agonist containing solution. […] Figures for the IC50 in all other cases are arithmetic mean values of individual IC50 s determined by the logistic curve fits.

[1] = biological target: NMDA receptor (3H-MK801 binding, high and low affinity binding sites); assay: 3H-MK801 (Dizocilpine) binding in vitro, rat whole brain membranes; conditions: 5 nM 3H-MK-801, 2 hours, room temperature
Procedure: 3H-MK801 (Dizocilpine) binding in vitro
The whole brain from 150-200 g male rats, without cerebellum and without medulla oblongata was dissected on ice. The tissue was then homogenized with an Ultra-Turrax maximum speed during 30 seconds at 4° C. in 50 volumes of cold Tris HCl 50 mM, EDTA disodium 10 mM, pH=7.4 buffer (wet weight/v). The homogenate was centrifuged at 48'000 x g (20'000 rpm, SS34, Sorvall RC5C) for 10 minutes. The pellet was rehomogenized with the same volume of buffer and the homogenate incubated at 37° C. for 10 minutes. After centrifugation as above, the pellet was rehomogenized with the same volume of buffer and frozen at -80° C. in 35 ml fractions for at least 16 hours and not more than 2 weeks.
For the binding experiment, the homogenate was centrifuged as above and the pellet was washed 3 times by homogenization in 25 volumes of cold Tris HCl 5mM, pH=7.4 buffer (Ultra-Turrax, maximum speed, 30 seconds) and centrifugation as above. The final pellet was rehomogenized in 25 volumes of buffer (original wet weight) and used as such in the assay. The final concentration of membrane in the assay was 20 mg/ml (wet weight).
The incubation was performed in the presence of 1 nM glutamate, glycine and spermidine. MK-801, (+)-[3-3H(N)], NEN (NET-972) 20Ci/mmol, was used at 5 nM final concentration. Non specific binding was determined in presence of 10ONM 1-[1-(2-Thienyl)cyclohexyl]piperidine (TCP). After 2 hours of incubation at room temperature, the suspension was filtered (Whatmann GF/B, soaked in 0.1% polyethylenimine for 2 hours) and washed 5 times with 3 ml of cold Tris HCl 5mM, pH=7.4 buffer. The air-dried filters were counted with 10 ml of Ultima-gold (Packard) in a Tri-Carb 2500 TR scintillation counter after agitation.
The radioactive decays per minute (DPM) were transformed in % of specific binding and these values were treated by a non linear regression calculation program (BINDING, H. Affolter, Switzerland) which provided the IC50 values for the low and high affinity binding sites (=concentrations producing half maximal inhibition at the respective sites). Each experiment was repeated at least three times and the final IC50 values were calculated as the mean +/-standard deviation of the individual experiments.
Reference: R. W. Ransom and N. L. Stec. Journal of Neurochemistry 51, 830-836, 1988.

NMDAR1C--NMDAR2B = biological target: T2, NMDAR1C--NMDAR2B (Rattus norvegicus, UniProt P35439+Q00960); assay: Electrophysiology on recombinant NMDA receptors NMDAR1C-NMDAR2B expressed in Xenopus oocytes; type: cell-based; conditions: -80 mV, 15 μM Asp plus 0.2 μM Gly, read-out: Electrophysiology IC50 NMDAR 1C u. 2B
T2 construct: expressed in transfected cells; host or cells: Xenopus laevis oocytes, mRNA injected 1:1
T2 sequence (Q00960 27-1482, other chains not shown): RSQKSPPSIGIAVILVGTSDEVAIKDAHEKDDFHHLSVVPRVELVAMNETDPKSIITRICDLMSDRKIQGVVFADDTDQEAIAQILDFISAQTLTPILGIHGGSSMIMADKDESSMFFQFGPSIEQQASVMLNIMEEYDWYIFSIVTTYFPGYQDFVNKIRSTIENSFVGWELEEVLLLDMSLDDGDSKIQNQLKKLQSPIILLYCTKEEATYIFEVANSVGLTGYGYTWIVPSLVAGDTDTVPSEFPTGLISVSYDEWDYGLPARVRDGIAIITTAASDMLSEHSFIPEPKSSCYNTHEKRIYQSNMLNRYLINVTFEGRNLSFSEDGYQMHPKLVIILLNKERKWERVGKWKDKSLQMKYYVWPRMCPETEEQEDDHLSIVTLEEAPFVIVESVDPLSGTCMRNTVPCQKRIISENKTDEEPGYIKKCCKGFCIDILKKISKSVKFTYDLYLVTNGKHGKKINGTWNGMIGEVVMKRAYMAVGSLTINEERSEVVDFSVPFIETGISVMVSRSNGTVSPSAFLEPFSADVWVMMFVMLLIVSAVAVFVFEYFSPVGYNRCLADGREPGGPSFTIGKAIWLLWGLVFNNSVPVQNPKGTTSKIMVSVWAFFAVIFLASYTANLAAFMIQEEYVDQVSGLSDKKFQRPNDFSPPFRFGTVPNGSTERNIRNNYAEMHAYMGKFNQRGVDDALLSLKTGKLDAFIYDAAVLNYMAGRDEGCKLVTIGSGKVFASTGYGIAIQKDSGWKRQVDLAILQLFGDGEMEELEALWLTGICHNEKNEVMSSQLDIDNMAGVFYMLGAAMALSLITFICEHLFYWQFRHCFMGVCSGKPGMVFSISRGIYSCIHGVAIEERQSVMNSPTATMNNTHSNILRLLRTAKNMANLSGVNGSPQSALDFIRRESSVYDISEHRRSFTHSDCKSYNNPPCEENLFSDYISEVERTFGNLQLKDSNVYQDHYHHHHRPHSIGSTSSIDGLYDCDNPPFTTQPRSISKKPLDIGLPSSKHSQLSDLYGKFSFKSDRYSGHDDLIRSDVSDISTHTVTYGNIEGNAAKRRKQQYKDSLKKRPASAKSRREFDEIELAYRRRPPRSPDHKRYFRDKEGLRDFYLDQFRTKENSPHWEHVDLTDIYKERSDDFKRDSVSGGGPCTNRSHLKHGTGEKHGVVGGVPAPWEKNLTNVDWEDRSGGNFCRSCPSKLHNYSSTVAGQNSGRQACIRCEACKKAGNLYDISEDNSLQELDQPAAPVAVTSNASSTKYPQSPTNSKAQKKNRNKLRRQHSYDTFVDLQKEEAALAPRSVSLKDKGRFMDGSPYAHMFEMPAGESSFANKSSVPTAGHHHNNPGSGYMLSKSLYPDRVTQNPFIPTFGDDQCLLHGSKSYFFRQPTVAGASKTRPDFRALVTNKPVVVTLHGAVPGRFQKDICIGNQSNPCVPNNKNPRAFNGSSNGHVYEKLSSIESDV
Excerpt: as §1, §2

[2] = high affinity binding site, read-out: 3H-MK801 IC50 high
[3] = low affinity binding site, read-out: 3H-MK801 IC50 low

## CS(=O)(=O)Nc1ccc(OCCN2CC=C(c3ccc(F)cc3)CC2)cc1 [G, N-[4-[2-[4-(4-Fluoro-phenyl)-3,6-dihydro-2H-pyridin-1-yl]-ethoxy]-phenyl]-methanesulfonamide]
NMDAR1C--NMDAR2A
  IC50: > 30 µM
[1]; [2]
  IC50: 0.236 µM
[1]; [3]
  IC50: 24 µM
NMDAR1C--NMDAR2B
  IC50: 0.8 µM

## NC(=O)c1ccc(OCC(O)CN2CC=C(c3ccc(F)cc3)CC2)cc1 (stereo not drawn) [H]
NMDAR1C--NMDAR2A
  IC50: > 30 µM
[1]; [2]
  IC50: 0.33 µM
[1]; [3]
  IC50: 40 µM
NMDAR1C--NMDAR2B
  IC50: 0.71 µM

## NC(=O)Nc1ccc(OCC(O)CN2CC=C(c3ccc(F)cc3)CC2)cc1 (stereo not drawn) [A, [4-[3-[4-(4-Fluoro-phenyl)-3,6-dihydro-2H-pyridin-1-yl]-2-hydroxy-propoxy]-phenyl]-urea]
[1]; [2]
  IC50: 0.02 µM
[1]; [3]
  IC50: 55 µM

## CC(=O)Nc1ccc(OCCCN2CC=C(c3ccc(F)cc3)CC2)cc1 [F]
[1]; [2]
  IC50: 0.2 µM
[1]; [3]
  IC50: 85 µM

## CS(=O)(=O)Nc1ccc(OCC(O)CN2CC=C(c3ccc(F)cc3)CC2)cc1 (stereo not drawn) [C, N-[4-[3-[4-(4-Fluoro-phenyl)-3,6-dihydro-2H-pyridin-1-yl]-2-hydroxy-propoxy]-phenyl]-methanesulfonamide]
[1]; [2]
  IC50: 0.02 µM
[1]; [3]
  IC50: 69 µM

## CCC(=O)Nc1ccc(OCCCN2CC=C(c3ccc(F)cc3)CC2)cc1 [L]
[1]; [2]
  IC50: 1 µM
[1]; [3]
  IC50: 110 µM

## CCOC(=O)Nc1ccc(OCC(O)CN2CC=C(c3ccc(F)cc3)CC2)cc1 (stereo not drawn) [D, [4-[3-[4-(4-Fluoro-phenyl)-3,6-dihydro-2H-pyridin-1-yl]-2-hydroxy-propoxy]-phenyl]-carbamic acid ethyl ester]
NMDAR1C--NMDAR2A
  IC50: > 20 µM
[1]; [2]
  IC50: 0.136 µM
[1]; [3]
  IC50: 320 µM
NMDAR1C--NMDAR2B
  IC50: 0.63 µM

## COc1ccc(C2=CCN(CCCOc3ccc(NC(C)=O)cc3)CC2)cc1 [K]
[1]; [2]
  IC50: 0.91 µM
[1]; [3]
  IC50: 76 µM

## CC(=O)c1ccc(OCCCN2CC=C(c3ccccc3)CC2)cc1 [O]
[1]; [2]
  IC50: 7.5 µM
[1]; [3]
  IC50: 298 µM

## CC(=O)Nc1ccc(OCCCN2CC=C(c3ccc(Cl)cc3)CC2)cc1 [E, N-[4-[3-[4-(4-chloro-phenyl)-3,6-dihydro-2H-pyridin-1-yl]-propoxy]-phenyl]-acetamide]
[1]; [2]
  IC50: 0.2 µM
[1]; [3]
  IC50: 88 µM

## CC(=O)Nc1ccc(OCC(O)CN2CC=C(c3ccccc3)CC2)cc1 (stereo not drawn) [I]
[1]; [2]
  IC50: 0.41 µM
[1]; [3]
  IC50: 110 µM

## Nc1ccc(OCCCN2CC=C(c3ccc(F)cc3)CC2)cc1 [J]
[1]; [2]
  IC50: 0.78 µM
[1]; [3]
  IC50: 44 µM

## OC(COc1ccccc1)CN1CC=C(c2ccccc2)CC1 (stereo not drawn) [M]
[1]; [2]
  IC50: 1.75 µM
[1]; [3]
  IC50: 102 µM

## CS(=O)(=O)Nc1ccc(OCCCN2CC=C(c3ccc(F)cc3)CC2)cc1 [B, N-[4-[3-[4-(4-Fluoro-phenyl)-3,6-dihydro-2H-pyridin-1-yl]-propoxy]-phenyl]-methanesulfonamide hydrochloride (1:1)]
[1]; [2]
  IC50: 0.02 µM
[1]; [3]
  IC50: 75 µM

## OC(COc1ccc2c(c1)CCC2)CN1CC=C(c2ccc(F)cc2)CC1 (stereo not drawn) [compound N]
[1]; [2]
  IC50: 1.96 µM
[1]; [3]
  IC50: 258 µM
